Legend:
HBV (HepG2.2.15 cells) = assay: Anti-HBV activity experiment in vitro (HepG2.2.15, HBV DNA in supernatant, qPCR); format: cell-based; conditions: Hepatitis B virus, HBV DNA in supernatant by qPCR, eighth day
Method: Compound Dilution: initial concentrations of all compounds used in the anti-HBV activity experiments in vitro were 1 μM, 3-fold diluted into 8 concentrations; initial concentrations of all compounds used in the cytotoxicity assay were 100 μM, 3-fold diluted into 8 concentrations; and the mother liquor of the compound was diluted with DMSO.
(§1) Anti-HBV Activity Experiment In Vitro: HepG2.2.15 cells (4×10^4 cells/well) were seeded in 96-well plates and cultured overnight at 37° C. in 5% CO2. The next day, fresh cultures containing compounds in different concentrations were added into the culture wells. On the fifth day, the old culture medium in the culture wells was aspirated and removed. Fresh medium containing compounds in different concentrations was added. On the eighth day, supernatants in the culture wells were collected and used to extract HBV DNA in the supernatant. qPCR assay was used to detect HBV DNA content in the HepG2.2.15 supernatant.
The data analysis and the percentage of inhibition calculation: the percentage of inhibition was calculated by using the following formula: Inhibition %=[(HBV amount in DMSO control−HBV amount in sample)/HBV amount in DMSO control]×100%.

[1] = Pharmacokinetic determination in rats (IV and PO); format: in vivo, Sprague Dawley rats; conditions: rat
Method: The pharmacokinetics of the compound of Example 3 (racemate) in the present application was determined in rats.
Test compounds were intravenously (IV) and orally (P0) administered to Sprague Dawley rats once. Blood samples were collected at different time points. LC/MS/MS was used to determine the concentration of the test compounds in the rat plasma after the administration of the test compounds and calculate the relating parameters.
Time points for animal blood collection were: before administration, 5 min, 15 min, 30 min, 1 h, 2 h, 4 h, 6 h, 8 h and 24 h after administration. Approximately 0.3 mL of blood via jugular or other appropriate venipuncture was collected from each animal and anticoagulated with heparin sodium. Blood samples were collected and placed on ice, and plasma was centrifuged (centrifugation: 8000 rpm, 6 min, 4° C.). Plasma samples were stored in a −70° C. freezer before analysis.
50 μL of sample was taken into a 1.5 mL centrifuge tube, and 250 μL of internal standard solution was added. After subjected to vortex for 60 seconds and centrifugation for 5 min (14,000 revolutions/min), 200 μL of supernatant was taken into a 96-well sample plate for analysis.
Mass spectrometer: API 4000, Applied Biosystems, Inc., Electrospray Ionization Source (ESI), Tandem quadrupole mass analyzer.
Mass spectrometry conditions: ion source: electrospray ionization source (ESI); auxiliary gas (Gas1): 60 psi; auxiliary gas (Gas2): 60 psi; curtain gas (CUR): 14 psi; collision gas (CAD): 6; ion source voltage (IS): 5500V; ion source temperature (TEM): 550° C.
Liquid phase conditions: chromatography Column: Thermo AQUASIL C18 (50×2.1 mm); chromatographic mobile phase: A is 0.1% formic acid in water, solution B is 0.1% formic acid in methanol (A:B=80%: 20%-10%: 90%); flow rate: 500 μL/min; injection volume: 1 μL.
According to the drug blood concentration data, the pharmacokinetic parameters of the test compound were calculated using the pharmacokinetic calculation software WinNonlin 5.2 non-compartmental model.

[2] = system: nucleoside drug-resistant HBV strain M204I + S202G; assay: In vitro anti-nucleoside drug-resistant HBV strain activity experiment, transient transfection; format: cell-based; conditions: Hepatitis B virus, HepG2, 192 h
Method: as §1, with “Compounds were tested for in vitro activity against nucleoside drug-resistant HBV strains using a transient transfection cell model. HepG2 cells” for “Anti-HBV Activity Experiment In Vitro: HepG2.2.15 cells”, “cells/well) that had been transfected with nucleoside drug-resistant HBV strains” for “cells/well)”, “seeded into” for “seeded in”, “removed. The fresh” for “removed. Fresh”, “the HepG2” for “the HepG2.2.15”

[3] = system: nucleoside drug-resistant HBV strain M204I; assay: as above; format: cell-based; conditions: Hepatitis B virus, HepG2
Method: as §1, with “Compounds were tested for in vitro activity against nucleoside drug-resistant HBV strains using a transient transfection cell model. HepG2 cells” for “Anti-HBV Activity Experiment In Vitro: HepG2.2.15 cells”, “cells/well) that had been transfected with nucleoside drug-resistant HBV strains” for “cells/well)”, “seeded into” for “seeded in”, “removed. The fresh” for “removed. Fresh”, “the HepG2” for “the HepG2.2.15”

[4] = system: nucleoside drug-resistant HBV strain M204I + V173L; assay: as above; format: cell-based; conditions: Hepatitis B virus, HepG2, 192 h
Method: as §1, with “Compounds were tested for in vitro activity against nucleoside drug-resistant HBV strains using a transient transfection cell model. HepG2 cells” for “Anti-HBV Activity Experiment In Vitro: HepG2.2.15 cells”, “cells/well) that had been transfected with nucleoside drug-resistant HBV strains” for “cells/well)”, “seeded into” for “seeded in”, “removed. The fresh” for “removed. Fresh”, “the HepG2” for “the HepG2.2.15”

HBV strain U95551 (WT) = assay: as above; format: cell-based; conditions: Hepatitis B virus, transfected HepG2 cells
Method: as §1, with “Compounds were tested for in vitro activity against nucleoside drug-resistant HBV strains using a transient transfection cell model. HepG2 cells” for “Anti-HBV Activity Experiment In Vitro: HepG2.2.15 cells”, “cells/well) that had been transfected with nucleoside drug-resistant HBV strains” for “cells/well)”, “seeded into” for “seeded in”, “removed. The fresh” for “removed. Fresh”, “the HepG2” for “the HepG2.2.15”

[5] = system: nucleoside drug-resistant HBV strain L180M + M204V; assay: as above; format: cell-based; conditions: Hepatitis B virus, HepG2, 192 h
Method: as §1, with “Compounds were tested for in vitro activity against nucleoside drug-resistant HBV strains using a transient transfection cell model. HepG2 cells” for “Anti-HBV Activity Experiment In Vitro: HepG2.2.15 cells”, “cells/well) that had been transfected with nucleoside drug-resistant HBV strains” for “cells/well)”, “seeded into” for “seeded in”, “removed. The fresh” for “removed. Fresh”, “the HepG2” for “the HepG2.2.15”

[6] = system: nucleoside drug-resistant HBV strain M204I + S202G + M250V; assay: as above; format: cell-based; conditions: Hepatitis B virus, HepG2, 192 h
Method: as §1, with “Compounds were tested for in vitro activity against nucleoside drug-resistant HBV strains using a transient transfection cell model. HepG2 cells” for “Anti-HBV Activity Experiment In Vitro: HepG2.2.15 cells”, “cells/well) that had been transfected with nucleoside drug-resistant HBV strains” for “cells/well)”, “seeded into” for “seeded in”, “removed. The fresh” for “removed. Fresh”, “the HepG2” for “the HepG2.2.15”

[7] = system: HBV genotype AB246346 (C); assay: Anti-different genotypic HBV strain activity assay in vitro, transient transfection; format: cell-based; conditions: Hepatitis B virus, HepG2
Method: as §1, with “Compounds were tested for in vitro activity against different genotypic HBV strains using a transient transfection cell model. HepG2 cells” for “Anti-HBV Activity Experiment In Vitro: HepG2.2.15 cells”, “cells/well) that had been transfected with different HBV genotypic strains” for “cells/well)”, “seeded into” for “seeded in”, “removed. The fresh” for “removed. Fresh”, “to detected” for “to detect”, “the HepG2” for “the HepG2.2.15”

HBV genotype U95551 (D) = assay: as above; format: cell-based; conditions: Hepatitis B virus, HepG2
Method: as §1, with “Compounds were tested for in vitro activity against different genotypic HBV strains using a transient transfection cell model. HepG2 cells” for “Anti-HBV Activity Experiment In Vitro: HepG2.2.15 cells”, “cells/well) that had been transfected with different HBV genotypic strains” for “cells/well)”, “seeded into” for “seeded in”, “removed. The fresh” for “removed. Fresh”, “to detected” for “to detect”, “the HepG2” for “the HepG2.2.15”

[8] = system: HBV genotype AB246345 (C); assay: as above; format: cell-based; conditions: Hepatitis B virus, HepG2
Method: as §1, with “Compounds were tested for in vitro activity against different genotypic HBV strains using a transient transfection cell model. HepG2 cells” for “Anti-HBV Activity Experiment In Vitro: HepG2.2.15 cells”, “cells/well) that had been transfected with different HBV genotypic strains” for “cells/well)”, “seeded into” for “seeded in”, “removed. The fresh” for “removed. Fresh”, “to detected” for “to detect”, “the HepG2” for “the HepG2.2.15”

[9] = system: HBV genotype JN406371 (B); assay: as above; format: cell-based; conditions: Hepatitis B virus, HepG2
Method: as §1, with “Compounds were tested for in vitro activity against different genotypic HBV strains using a transient transfection cell model. HepG2 cells” for “Anti-HBV Activity Experiment In Vitro: HepG2.2.15 cells”, “cells/well) that had been transfected with different HBV genotypic strains” for “cells/well)”, “seeded into” for “seeded in”, “removed. The fresh” for “removed. Fresh”, “to detected” for “to detect”, “the HepG2” for “the HepG2.2.15”

[10] = system: HBV genotype AB033554 (B); assay: as above; format: cell-based; conditions: Hepatitis B virus, HepG2
Method: as §1, with “Compounds were tested for in vitro activity against different genotypic HBV strains using a transient transfection cell model. HepG2 cells” for “Anti-HBV Activity Experiment In Vitro: HepG2.2.15 cells”, “cells/well) that had been transfected with different HBV genotypic strains” for “cells/well)”, “seeded into” for “seeded in”, “removed. The fresh” for “removed. Fresh”, “to detected” for “to detect”, “the HepG2” for “the HepG2.2.15”

[11] = system: HBV genotype HE974371 (A2); assay: as above; format: cell-based; conditions: Hepatitis B virus, HepG2
Method: as §1, with “Compounds were tested for in vitro activity against different genotypic HBV strains using a transient transfection cell model. HepG2 cells” for “Anti-HBV Activity Experiment In Vitro: HepG2.2.15 cells”, “cells/well) that had been transfected with different HBV genotypic strains” for “cells/well)”, “seeded into” for “seeded in”, “removed. The fresh” for “removed. Fresh”, “to detected” for “to detect”, “the HepG2” for “the HepG2.2.15”

[12] = system: HBV genotype AP007263 (A); assay: as above; format: cell-based; conditions: Hepatitis B virus, HepG2
Method: as §1, with “Compounds were tested for in vitro activity against different genotypic HBV strains using a transient transfection cell model. HepG2 cells” for “Anti-HBV Activity Experiment In Vitro: HepG2.2.15 cells”, “cells/well) that had been transfected with different HBV genotypic strains” for “cells/well)”, “seeded into” for “seeded in”, “removed. The fresh” for “removed. Fresh”, “to detected” for “to detect”, “the HepG2” for “the HepG2.2.15”

[13] = Sprague Dawley, IV, single administration, plasma
[14] = Sprague Dawley, PO, single administration, plasma

Compound	EC50 (HBV (HepG2.2.15 cells)) [nM]	EC50 [2] [nM]	EC50 [3] [nM]	EC50 [4] [nM]	EC50 (HBV strain U95551 (WT)) [nM]	EC50 [5] [nM]	EC50 [6] [nM]	EC50 [7] [nM]	EC50 (HBV genotype U95551 (D)) [nM]	EC50 [8] [nM]	EC50 [9] [nM]	EC50 [10] [nM]	EC50 [11] [nM]	EC50 [12] [nM]	further results
O=C1COC(c2cn(-c3ccc(Br)cc3)nc2-c2ccc(F)cc2)N1CCc1ccc2[nH]c(=O)[nH]c2c1 (racemic) [example 3 racemate, 3-(2-(2-oxo-2,3-dihydro-1H-benzo[d]imidazol-5-yl)ethyl)-2-(1-(4-bromophenyl)-3-(4-fluorophenyl)-1H-pyrazol-4-yl)-oxazolidin-4-one]	31.2	–	–	–	–	–	–	–	–	–	–	–	–	–	Vd ([1]; Sprague Dawley, plasma, IV, single administration, read-out: Vz): 6.22 L/kg; AUC(0-inf) [1, 13]: 3880 ng·h/mL; Cmax [1, 13]: 5460 ng/mL; Tmax [1, 13]: 0.083 h; half-life [1, 13]: 3.52 h; AUC(0-inf) [1, 14]: 773 ng·h/mL; Cmax [1, 14]: 201 ng/mL; Tmax [1, 14]: 0.83 h; half-life [1, 14]: 2.07 h; CLz ([1]; IV, single administration): 21.8 mL/min/kg; F ([1]; PO vs IV): 18.55%; Vz ([1]; PO, single administration): 3.58 L/kg
Nc1ccn([C@@H]2CS[C@H](CO)O2)c(=O)n1 [Lamivudine, 3′-thio-2′,3′-dideoxycytidine, reference compound]	–	> 100000	> 100000	> 100000	94.9	> 100000	> 100000	128	123	97.2	112	156	136	136	–
O=C1Cc2cc(CCN3C(=O)COC3c3cn(-c4ccc(Br)cc4)nc3-c3ccc(F)cc3)ccc2N1 (racemic) [example 13 racemate]	22	74.7	75.8	72.2	82	102	87.4	59.2	86.8	30.9	36	47	32.5	168	–
O=C1CO[C@@H](c2cn(-c3ccc(Br)cc3)nc2-c2ccoc2)N1CCc1ccc2[nH]c(=O)[nH]c2c1 [example 21 S isomer, (S)-2-(1-(4-bromophenyl)-3-(furan-3-yl)-1H-pyrazol-4-yl)-3-(2-(2-oxo-2,3-dihydro-1H-benzo[d]imidazol-5-yl)ethyl)oxazolidin-4-one]	> 1000	–	–	–	–	–	–	–	–	–	–	–	–	–	–

Reference: patent US10519145B2, “Pyrazole-oxazolidinone compound for anti-hepatitis B virus” (Shanghai Zhimeng Biopharma Co., Ltd., priority 2016, dated 2019)
